In ChEMBL document CHEMBL6087433, “Discovery of ART0380, a Potent and Selective ATR Kinase Inhibitor Undergoing Phase 2 Clinical Studies for the Treatment of Advanced or Metastatic Solid Cancers” (J Med Chem, 2024):
Active and inactive are the calls of the source. The calls are words filed in the database; no cut-off is given here.

Tests used:
LoVo = experiment: cells; details: Homo sapiens
Description: Antiproliferative activity against human LoVo cells assessed as inhibition of cell growth incubated for 7 days by CellTiter-Glo 2.0 assay

in vitro [1] = details: dog, hepatocytes
Description: Intrinsic clearance in dog hepatocytes

in vivo [2] = details: Sprague-Dawley, rat, po, 10 mg/kg
in vivo [3] = details: CD-1, mouse, iv, 1 mg/kg
Description: Volume of distribution at steady state in CD-1 mouse at 1 mg/kg, iv

Cytochrome P450 1A2 = molecular target: T1, Cytochrome P450 1A2 (Homo sapiens, UniProt P05177)
T1 sequence (P05177 whole entry): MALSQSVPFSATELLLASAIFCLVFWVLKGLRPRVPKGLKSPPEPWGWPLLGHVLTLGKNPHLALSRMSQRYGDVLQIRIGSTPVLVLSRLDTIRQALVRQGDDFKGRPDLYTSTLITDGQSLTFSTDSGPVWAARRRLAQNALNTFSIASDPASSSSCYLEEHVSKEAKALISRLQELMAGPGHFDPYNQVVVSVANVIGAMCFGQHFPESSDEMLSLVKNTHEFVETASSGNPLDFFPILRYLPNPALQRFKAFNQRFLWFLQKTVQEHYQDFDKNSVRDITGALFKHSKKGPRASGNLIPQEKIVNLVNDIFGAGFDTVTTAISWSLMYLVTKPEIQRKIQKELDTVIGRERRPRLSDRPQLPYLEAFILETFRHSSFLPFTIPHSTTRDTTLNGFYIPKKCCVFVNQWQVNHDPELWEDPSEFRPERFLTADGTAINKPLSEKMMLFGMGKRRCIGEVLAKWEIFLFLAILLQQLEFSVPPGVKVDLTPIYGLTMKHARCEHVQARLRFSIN

physchem [4] = details: Simulated Gastric Fluid
Description: Thermodynamic solubility of the compound in Simulated Gastric Fluid

Granta-519 = experiment: cells; details: Homo sapiens
Description: Antiproliferative activity against human Granta-519 cells assessed as inhibition of cell growth incubated for 7 days by CellTiter-Glo 2.0 assay

in vitro [5] = details: rat, hepatocytes
Description: Intrinsic clearance in rat hepatocytes

in vivo [6] = details: Beagle, dog, po, 10 mg/kg
Cytochrome P450 2D6 = Cytochrome P450 2D6 (Homo sapiens, UniProt P10635)
in vitro [7] = details: dog, plasma
Description: Protein binding in dog plasma assessed as free fraction at 5 uM incubated for 5 hrs by equilibrium dialysis method

Cytochrome P450 3A4 [8] = molecular target: T2, Cytochrome P450 3A4 (Homo sapiens, UniProt P08684)
in vivo [9] = details: CD-1, mouse, po, 10 mg/kg
[10] = molecular target: Serine/threonine-protein kinase mTOR (Homo sapiens, UniProt P42345)
in vitro [11] = details: human, plasma
Description: Protein binding in human plasma assessed as free fraction at 5 uM incubated for 5 hrs by equilibrium dialysis method

in vivo [12] = details: cynomolgus monkey, iv, 1 mg/kg
Description: Volume of distribution at steady state in cynomolgus monkey at 1 mg/kg, iv

in vitro [13] = details: cynomolgus monkey, plasma
Description: Protein binding in cynomolgus monkey plasma assessed as free fraction at 5 uM incubated for 5 hrs by equilibrium dialysis method

in vivo [14] = details: beagle, dog, iv, 1 mg/kg
Description: Volume of distribution at steady state in Beagle dog at 1 mg/kg, iv

in vivo [15] = details: Sprague-Dawley, rat, iv, 1 mg/kg
Description: Half life in Sprague-Dawley rat at 1 mg/kg, iv

in vivo [16] = details: CD-1, mouse, po, 10 mg/kg; remark: listed apart in the source
NCI-H23 = experiment: cells; details: Homo sapiens
Description: Antiproliferative activity against human NCI-H23 cells assessed as inhibition of cell growth incubated for 7 days by CellTiter-Glo 2.0 assay

CYP3A4 = CYP3A4 (Homo sapiens, UniProt P08684); experiment: in vitro; details: human liver microsomes, probe midazolam
Mus musculus = organism: Mus musculus; details: CD-1, dose 30-50 mg/kg, route po, time 4.0 hrs
in vivo [17] = details: CD-1, mouse, iv, 1 mg/kg; remark: listed apart in the source
Description: Half life in CD-1 mouse at 1 mg/kg, iv

in vivo [18] = details: Beagle, dog, po, 10 mg/kg; remark: listed apart in the source
in vivo [19] = details: Sprague-Dawley, rat, iv, 1 mg/kg; remark: listed apart in the source
[20] = molecular target: Phosphatidylinositol 3-kinase catalytic subunit type 3 (Homo sapiens, UniProt Q8NEB9)
Description: Inhibition of VPS34 (unknown origin) by ADP-Glo assay

Cytochrome P450 3A4 [21] = molecular target: T2, Cytochrome P450 3A4; remark: listed apart in the source
in vivo [22] = details: Sprague-Dawley, rat, po, 10 mg/kg; remark: listed apart in the source
Cytochrome P450 2C8 = molecular target: T3, Cytochrome P450 2C8 (Homo sapiens, UniProt P10632)
T3 sequence (P10632 whole entry): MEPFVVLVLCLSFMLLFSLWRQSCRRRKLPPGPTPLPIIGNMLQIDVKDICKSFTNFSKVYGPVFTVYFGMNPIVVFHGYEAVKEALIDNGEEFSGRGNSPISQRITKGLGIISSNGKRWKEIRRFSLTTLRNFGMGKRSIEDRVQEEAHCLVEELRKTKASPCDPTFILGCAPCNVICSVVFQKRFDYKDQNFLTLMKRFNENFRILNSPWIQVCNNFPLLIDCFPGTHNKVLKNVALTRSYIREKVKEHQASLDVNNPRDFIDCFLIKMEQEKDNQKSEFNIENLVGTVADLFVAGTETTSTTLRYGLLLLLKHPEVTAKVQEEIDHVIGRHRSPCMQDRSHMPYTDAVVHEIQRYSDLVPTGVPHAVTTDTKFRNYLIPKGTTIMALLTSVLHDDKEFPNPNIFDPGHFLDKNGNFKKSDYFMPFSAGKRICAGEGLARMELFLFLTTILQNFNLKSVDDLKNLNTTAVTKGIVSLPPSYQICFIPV
Description: Inhibition of CYP2C8 in human liver microsomes by LC-MS/MS analysis

in vivo [23] = details: beagle, dog, iv, 1 mg/kg; remark: listed apart in the source
Description: Half life in Beagle dog at 1 mg/kg, iv

in vivo [24] = details: CD-1, mouse, po, 10 mg/kg; remark: listed apart in the source
in vivo [25] = details: CD-1, mouse, po, 30 mg/kg
[26] = molecular target: Voltage-gated inwardly rectifying potassium channel KCNH2 (Homo sapiens, UniProt Q12809)
Description: Inhibition of hERG transfected in CHO cells by patch clamp automated cellular electrophysiology analysis

in vitro [27] = details: human, CCD-18Co cells
Description: Cytotoxicity against human CCD-18Co cells assessed as inhibition of cell growth incubated for 7 days by CellTiter-Glo 2.0 assay

in vitro [28] = details: human, hepatocytes
Description: Intrinsic clearance in human hepatocytes

physchem [29] = details: Fed State Simulated Intestinal Fluid
Description: Thermodynamic solubility of the compound in Fed State Simulated Intestinal Fluid

in vitro [30] = details: rat, plasma
Description: Protein binding in rat plasma assessed as free fraction at 5 uM incubated for 5 hrs by equilibrium dialysis method

in vitro [31] = details: cynomolgus monkey, hepatocytes
Description: Intrinsic clearance in cynomolgus monkey hepatocytes

in vivo [32] = details: cynomolgus monkey, po, 10 mg/kg
[33] = molecular target: Phosphatidylinositol 4,5-bisphosphate 3-kinase catalytic subunit gamma isoform (Homo sapiens, UniProt P48736)
Chain of Phosphatidylinositol 4,5-bisphosphate 3-kinase catalytic subunit gamma isoform (P48736 whole entry, canonical isoform): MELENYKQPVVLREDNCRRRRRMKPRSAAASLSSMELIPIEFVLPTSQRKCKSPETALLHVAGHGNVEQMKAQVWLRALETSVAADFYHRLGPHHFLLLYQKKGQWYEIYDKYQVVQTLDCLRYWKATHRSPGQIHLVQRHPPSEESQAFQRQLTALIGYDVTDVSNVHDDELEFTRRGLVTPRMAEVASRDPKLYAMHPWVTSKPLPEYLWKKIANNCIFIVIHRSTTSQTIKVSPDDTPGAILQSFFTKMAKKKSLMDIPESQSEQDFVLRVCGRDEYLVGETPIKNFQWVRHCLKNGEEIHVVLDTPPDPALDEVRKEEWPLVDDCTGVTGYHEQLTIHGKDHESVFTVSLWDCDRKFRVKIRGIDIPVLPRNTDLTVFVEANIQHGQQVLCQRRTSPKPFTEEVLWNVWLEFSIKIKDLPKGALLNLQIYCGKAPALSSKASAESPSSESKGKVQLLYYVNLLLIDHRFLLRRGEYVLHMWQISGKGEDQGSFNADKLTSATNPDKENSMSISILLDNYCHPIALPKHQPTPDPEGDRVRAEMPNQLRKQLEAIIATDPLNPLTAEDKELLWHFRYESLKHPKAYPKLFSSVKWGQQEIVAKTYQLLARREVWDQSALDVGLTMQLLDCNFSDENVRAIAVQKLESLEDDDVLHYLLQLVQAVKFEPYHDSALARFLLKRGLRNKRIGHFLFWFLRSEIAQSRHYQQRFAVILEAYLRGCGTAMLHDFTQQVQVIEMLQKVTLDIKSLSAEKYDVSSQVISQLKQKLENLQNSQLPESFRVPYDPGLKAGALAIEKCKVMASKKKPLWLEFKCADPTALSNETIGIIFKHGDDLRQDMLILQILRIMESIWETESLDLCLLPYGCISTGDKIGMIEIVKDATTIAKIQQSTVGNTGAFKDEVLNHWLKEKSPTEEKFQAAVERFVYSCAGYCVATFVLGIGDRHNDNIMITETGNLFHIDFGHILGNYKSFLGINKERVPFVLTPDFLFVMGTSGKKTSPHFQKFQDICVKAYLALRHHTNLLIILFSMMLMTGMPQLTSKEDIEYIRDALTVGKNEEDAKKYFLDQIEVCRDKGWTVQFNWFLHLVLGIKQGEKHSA
Description: Inhibition of PI3Kgamma (unknown origin) by ADP-Glo assay

T2 sequence (P08684 whole entry): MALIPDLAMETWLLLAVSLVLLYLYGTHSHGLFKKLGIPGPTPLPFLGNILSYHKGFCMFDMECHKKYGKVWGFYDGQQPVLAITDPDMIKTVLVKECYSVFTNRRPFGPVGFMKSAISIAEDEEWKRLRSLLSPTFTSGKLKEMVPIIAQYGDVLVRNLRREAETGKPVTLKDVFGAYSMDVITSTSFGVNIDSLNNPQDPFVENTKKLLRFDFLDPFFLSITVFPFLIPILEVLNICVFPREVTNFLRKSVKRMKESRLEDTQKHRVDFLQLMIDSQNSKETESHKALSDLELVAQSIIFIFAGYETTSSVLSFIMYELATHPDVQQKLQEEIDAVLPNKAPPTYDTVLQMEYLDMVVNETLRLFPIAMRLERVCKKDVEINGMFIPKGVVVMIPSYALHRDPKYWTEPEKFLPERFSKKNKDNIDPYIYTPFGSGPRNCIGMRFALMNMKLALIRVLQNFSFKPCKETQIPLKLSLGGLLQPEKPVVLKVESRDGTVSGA
Chain of Phosphatidylinositol 3-kinase catalytic subunit type 3 (Q8NEB9 whole entry): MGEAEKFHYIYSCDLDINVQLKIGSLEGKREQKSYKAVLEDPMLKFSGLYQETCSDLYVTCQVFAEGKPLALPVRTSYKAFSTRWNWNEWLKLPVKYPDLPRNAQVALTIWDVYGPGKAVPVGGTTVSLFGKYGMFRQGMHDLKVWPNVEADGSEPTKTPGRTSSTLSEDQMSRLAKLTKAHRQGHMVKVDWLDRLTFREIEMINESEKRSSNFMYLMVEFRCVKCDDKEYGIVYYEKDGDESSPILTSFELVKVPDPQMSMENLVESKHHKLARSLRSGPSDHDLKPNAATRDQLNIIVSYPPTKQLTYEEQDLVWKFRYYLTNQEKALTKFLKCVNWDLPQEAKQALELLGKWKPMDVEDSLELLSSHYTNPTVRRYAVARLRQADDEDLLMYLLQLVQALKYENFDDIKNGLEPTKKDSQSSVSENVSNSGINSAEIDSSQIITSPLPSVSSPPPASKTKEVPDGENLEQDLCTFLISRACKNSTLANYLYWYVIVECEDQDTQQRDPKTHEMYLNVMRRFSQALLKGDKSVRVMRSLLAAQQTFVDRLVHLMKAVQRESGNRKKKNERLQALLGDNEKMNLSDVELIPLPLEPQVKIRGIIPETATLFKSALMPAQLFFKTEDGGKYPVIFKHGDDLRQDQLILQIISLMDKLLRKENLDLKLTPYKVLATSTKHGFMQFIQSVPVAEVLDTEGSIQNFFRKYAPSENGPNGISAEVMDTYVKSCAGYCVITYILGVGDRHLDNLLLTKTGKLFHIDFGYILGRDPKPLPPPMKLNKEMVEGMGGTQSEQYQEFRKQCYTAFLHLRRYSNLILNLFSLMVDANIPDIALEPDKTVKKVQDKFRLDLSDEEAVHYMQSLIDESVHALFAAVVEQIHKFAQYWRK
Chain of CYP3A4 (P08684 whole entry): as the sequence (P08684 whole entry) above
Chain of Voltage-gated inwardly rectifying potassium channel KCNH2 (Q12809 whole entry): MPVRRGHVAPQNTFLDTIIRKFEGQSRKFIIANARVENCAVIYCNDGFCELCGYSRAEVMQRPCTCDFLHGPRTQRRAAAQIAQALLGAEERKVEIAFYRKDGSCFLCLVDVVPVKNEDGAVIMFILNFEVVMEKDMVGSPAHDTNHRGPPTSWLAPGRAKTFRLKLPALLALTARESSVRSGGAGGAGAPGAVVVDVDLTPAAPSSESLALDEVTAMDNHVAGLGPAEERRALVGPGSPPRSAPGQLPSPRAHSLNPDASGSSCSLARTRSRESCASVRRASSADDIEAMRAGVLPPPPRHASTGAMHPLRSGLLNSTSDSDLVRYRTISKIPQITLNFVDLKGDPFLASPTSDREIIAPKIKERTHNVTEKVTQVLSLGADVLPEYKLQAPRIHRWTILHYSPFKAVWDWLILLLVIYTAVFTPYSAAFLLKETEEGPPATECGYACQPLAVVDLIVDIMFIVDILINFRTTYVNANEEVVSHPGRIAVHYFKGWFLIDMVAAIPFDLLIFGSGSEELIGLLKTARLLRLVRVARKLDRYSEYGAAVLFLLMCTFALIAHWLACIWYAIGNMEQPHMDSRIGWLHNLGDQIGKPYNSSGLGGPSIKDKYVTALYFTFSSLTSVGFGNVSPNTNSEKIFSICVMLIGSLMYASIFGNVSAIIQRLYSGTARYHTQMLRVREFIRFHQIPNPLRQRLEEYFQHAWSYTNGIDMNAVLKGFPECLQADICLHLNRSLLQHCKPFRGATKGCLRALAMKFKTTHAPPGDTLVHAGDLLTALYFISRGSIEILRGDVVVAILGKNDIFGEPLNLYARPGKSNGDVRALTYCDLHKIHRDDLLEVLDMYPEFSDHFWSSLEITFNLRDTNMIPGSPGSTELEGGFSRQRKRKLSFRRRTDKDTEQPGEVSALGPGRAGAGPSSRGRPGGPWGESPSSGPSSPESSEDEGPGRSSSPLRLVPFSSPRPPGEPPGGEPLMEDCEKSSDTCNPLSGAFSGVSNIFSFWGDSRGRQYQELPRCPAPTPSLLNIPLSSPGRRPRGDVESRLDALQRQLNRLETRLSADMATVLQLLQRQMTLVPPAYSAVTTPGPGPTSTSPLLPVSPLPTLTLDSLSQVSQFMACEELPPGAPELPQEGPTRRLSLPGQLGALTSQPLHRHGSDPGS
Chain of Cytochrome P450 2D6 (P10635 whole entry): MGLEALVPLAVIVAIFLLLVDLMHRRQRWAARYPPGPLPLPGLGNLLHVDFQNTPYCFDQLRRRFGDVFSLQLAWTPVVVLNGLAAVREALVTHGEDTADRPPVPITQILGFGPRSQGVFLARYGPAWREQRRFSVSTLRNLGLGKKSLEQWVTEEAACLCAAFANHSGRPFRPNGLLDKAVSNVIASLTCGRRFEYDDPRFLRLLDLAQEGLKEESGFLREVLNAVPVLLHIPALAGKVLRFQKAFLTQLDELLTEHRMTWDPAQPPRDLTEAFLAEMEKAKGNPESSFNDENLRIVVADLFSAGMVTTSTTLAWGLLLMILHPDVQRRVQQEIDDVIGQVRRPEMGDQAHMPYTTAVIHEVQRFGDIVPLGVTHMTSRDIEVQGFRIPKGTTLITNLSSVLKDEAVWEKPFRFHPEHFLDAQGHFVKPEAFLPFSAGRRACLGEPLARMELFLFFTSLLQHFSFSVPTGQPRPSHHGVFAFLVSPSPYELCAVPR

C[C@@H]1COCCN1c1cc(N=[S@@](C)(=O)C2CC2)nc(-c2ccnc(N)c2)n1 gave an EC50 (LoVo) of 1.15 µM, a CLint scaled (in vitro [1]) of 6 mL/min/kg and a Tmax (in vivo [2]) of 11.4 min. For the same molecule, the Vd (in vivo [3]) was 4.9 L/kg, the IC50 (Cytochrome P450 1A2) was > 10 µM and the solubility thermodynamic (physchem [4]) was > 13000 µg/mL. For the same molecule, the EC50 (Granta-519) was 0.448 µM, the CLint scaled (in vitro [5]) was 29 mL/min/kg and the Cmax (in vivo [6]) was 1930 nM. For the same molecule, the IC50 (Cytochrome P450 2D6) was > 10 µM, the fraction unbound at 5 h, 5 µM (in vitro [7]) was 0.55 and the IC50 (Cytochrome P450 3A4 [8]) was > 10 µM. It also gave a Cmax (in vivo [9]) of 3160 nM, an IC50 [10] of 8.38 µM and a fraction unbound at 5 h, 5 µM (in vitro [11]) of 0.45. For the same molecule, the Vd (in vivo [12]) was 2 L/kg, the fraction unbound at 5 h, 5 µM (in vitro [13]) was 0.54 and the Vd (in vivo [14]) was 3.6 L/kg. For the same molecule, the half-life (in vivo [15]) was 36 min, the Tmax (in vivo [16]) was 15 min and the EC50 (NCI-H23) was 0.14 µM. For the same molecule, the inhibition at 0.5 h, 10 µM (CYP3A4) was 0.96%, the inhibition (Mus musculus) was “Active” and the half-life (in vivo [17]) was 168 min. For the same molecule, the Tmax (in vivo [18]) was 34.8 min, the Vd (in vivo [19]) was 3.9 L/kg and the IC50 [20] was > 50 µM. The IC50 (Cytochrome P450 3A4 [21]) was > 10 µM, the AUC(0-t) (in vivo [22]) was 3.78 µM·h and the IC50 (Cytochrome P450 2C8) was > 10 µM. It also gave a half-life (in vivo [23]) of 186 min, a bioavailability (in vivo [24]) of 77% and a Cmax (in vivo [25]) of 16100 nM. For the same molecule, the IC50 [26] was > 10 µM, the EC50 at 7 days (in vitro [27]) was 6.92 µM and the CLint scaled (in vitro [28]) was 8 mL/min/kg. For the same molecule, the solubility thermodynamic (physchem [29]) was > 5000 µg/mL, the fraction unbound at 5 h, 5 µM (in vitro [30]) was 0.48 and the CLint scaled (in vitro [31]) was 10 mL/min/kg. The Cmax (in vivo [32]) was 40 nM and the IC50 [33] was > 50 µM.
